What follows are molecules tested against Escherichia coli DNA gyrase A/B tetramer (Escherichia coli, UniProt P0AES4+P0AES6) (assay: DNA gyrase supercoiling activity fluorescence polarisation assay).
Assay type: biochemical
Experimental: In a black, 384-well polystyrene assay plate, 30 microliters/well of 5 nM Escherichia coli DNA gyrase A/B tetramer and 130 micrograms/ml of topologically relaxed plasmid containing the triplex-forming sequence […] in an assay buffer consisting of 35 mM Tris-HCl (pH 7.5), 24 mM KCl, 4 mM MgCl2, 2 mM dithiothreitol, 1.8 mM spermidine, 5% (v/v) glycerol, 200 nM bovine serum albumin, 0.8% dimethylsulfoxide, and 0.3 mM ATP may be incubated at ambient temperature for (typically 30 minutes) in the absence or presence of 5-10 different concentrations of test compound. The supercoiling reactions may be quenched by the addition of 10 microliters/well of 40 nM oligodeoxynucleotide probe in 3× triplex-forming buffer consisting of 150 mM NaCl, and 150 mM sodium acetate at pH 3.5. The oligodeoxynucleotide probe may be 5′-BODIPY-FL-labeled TTCTTCTTC. After 60 minutes, the fluorescence anisotropy of the BODIPY-FL may be measured in a Tecan Ultra plate reader, using 485 nm excitation and 535 nm emission filters equipped with polarizers. The IC50 may be determined by nonliner regression using two control reactions. The first contains no test compound but 0.8% DMSO (100% activity) while the second control reaction contains 5 uM Ciprofloxacin and 0.8% DMSO (0% activity).
When tested in an in-vitro assay based on the DNA gyrase supercoiling activity fluorescence polarisation assay described above, the E. coli DNA gyrase supercoiling IC50 assay inhibitory activity of the following Examples was measured at the indicated IC50.

Chain of Escherichia coli DNA gyrase A/B tetramer (P0AES4 whole entry, one chain of several): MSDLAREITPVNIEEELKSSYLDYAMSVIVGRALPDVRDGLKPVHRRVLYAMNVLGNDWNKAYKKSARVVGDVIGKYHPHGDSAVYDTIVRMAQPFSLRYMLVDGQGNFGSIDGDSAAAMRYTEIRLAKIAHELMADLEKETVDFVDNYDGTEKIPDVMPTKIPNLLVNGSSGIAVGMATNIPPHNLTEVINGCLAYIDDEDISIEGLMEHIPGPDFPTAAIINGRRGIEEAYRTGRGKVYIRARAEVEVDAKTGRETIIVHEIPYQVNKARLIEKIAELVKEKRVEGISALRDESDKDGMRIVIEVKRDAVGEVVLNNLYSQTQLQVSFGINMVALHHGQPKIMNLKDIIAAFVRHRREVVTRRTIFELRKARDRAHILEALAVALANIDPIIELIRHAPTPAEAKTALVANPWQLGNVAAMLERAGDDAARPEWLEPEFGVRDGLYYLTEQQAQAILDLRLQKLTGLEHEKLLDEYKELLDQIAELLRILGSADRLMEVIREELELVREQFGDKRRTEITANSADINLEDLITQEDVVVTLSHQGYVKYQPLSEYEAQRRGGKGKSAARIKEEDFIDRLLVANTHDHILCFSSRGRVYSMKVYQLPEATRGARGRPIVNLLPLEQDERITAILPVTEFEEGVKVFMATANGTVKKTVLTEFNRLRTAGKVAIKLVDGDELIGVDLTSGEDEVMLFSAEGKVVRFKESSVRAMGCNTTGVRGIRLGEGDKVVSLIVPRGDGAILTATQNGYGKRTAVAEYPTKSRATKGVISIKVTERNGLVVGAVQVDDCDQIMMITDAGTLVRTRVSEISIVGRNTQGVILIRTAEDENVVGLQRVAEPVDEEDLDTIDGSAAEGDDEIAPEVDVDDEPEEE

| Structure (SMILES) | IC50 [nM] |
| --- | --- |
| C[C@H]1CN2c3c(cc(C#Cc4cc5ccccc5s4)c(F)c3F)CC3(C(=O)NC(=O)NC3=O)[C@@H]2[C@@H](C)O1 (racemic) [Example 11, (2S,4R,4aR)-rel-8-(1-Benzothiophen-2-ylethynyl)-9,10-difluoro-2,4-dimethyl-1,2,4,4a-tetrahydro-2′H,6H-spiro[1,4-oxazino[4,3-a]quinoline-5,5′-pyrimidine]-2′,4′,6′(1′H,3′H)-trione] | 5490 |
| C[C@@H]1CN2c3c(cc(C#Cc4nccn4C)c(F)c3F)CC3(C(=O)NC(=O)NC3=O)[C@H]2[C@H](C)O1 (racemic) [Example 12, (2R,4S,4aS)-rel-9,10-Difluoro-2,4-dimethyl-8-[(1-methyl-1H-imidazol-2-yl)ethynyl]-1,2,4,4a-tetrahydro-2′H,6H-spiro[1,4-oxazino≡[4,3-a]quinoline-5,5′-pyrimidine]-2′,4′,6′(1′H,3H)-trione] | 690 |
| C[C@H]1CN2c3c(cc(C#Cc4cn(C)cn4)c(F)c3F)CC3(C(=O)NC(=O)NC3=O)[C@@H]2[C@@H](C)O1 (racemic) [Example 13, (2S,4R,4aR)-rel-9,10-Difluoro-2,4-dimethyl-8-[(1-methyl-1H-imidazol-4-yl)ethynyl]-1,2,4,4a-tetrahydro-2′H,6H-spiro[1,4-oxazino[4,3-a]quinoline-5,5′-pyrimidine]-2′,4′,6′-(1′H,3′H)-trione] | 2170 |
| C[C@@H]1CN2c3cc(F)c(C#Cc4cc5ccccc5s4)cc3CC3(C(=O)NC(=O)NC3=O)[C@H]2[C@H](C)O1 (racemic) [Example 29, (2R,4S,4aS)-rel-8-(1-Benzothiophen-2-ylethynyl)-9-fluoro-2,4-dimethyl-1,2,4,4a-tetrahydro-2′H,6H-spiro[1,4-oxazino[4,3-a]quinoline-5,5′-pyrimidine]-2′,4′,6′(1′H,3′H)-trione] | 20000 |
| C[C@@H]1CN2c3c(F)cc(C#Cc4cc5ccccc5s4)cc3CC3(C(=O)NC(=O)NC3=O)[C@H]2[C@H](C)O1 (racemic) [Example 41, (2R,4S,4aS)-rel-8-(1-Benzothiophen-2-ylethynyl)-10-fluoro-2,4-dimethyl-1,2,4,4a-tetrahydro-2′H,6H-spiro[1,4-oxazino[4,3-a]quinoline-5,5′-pyrimidine]-2′,4′,6′(1′H,3′H)-trione] | 7160 |
| COC(=O)N/N=C(\C)c1cc2c(c(F)c1F)N1C[C@@H](C)O[C@@H](C)[C@@H]1C1(C2)C(=O)NC(=O)NC1=O (racemic) [Example 49, Methyl (2E)-2-{1-[(2R,4S,4aS)-rel-9,10-difluoro-2,4-dimethyl-2′,4′6′-trioxo-1,1′,2,3′,4,4′,4a,6′-octahydro-2′H,6H-spiro[1,4-oxazino[4,3-a]quinoline-5,5′-pyrimidin]-8-yl]ethylidene}hydrazinecarboxylate] | 450 |
| C[C@@H]1CN2c3ccc(C#Cc4ccccn4)cc3CC3(C(=O)NC(=O)NC3=O)C2[C@H](C)O1 (relative stereo) [Example 2, (2R,4S)-rel-2,4-Dimethyl-8-(pyridin-2-ylethynyl)-1,2,4,4a-tetrahydro-2′H,6H-spiro[1,4-oxazino[4,3-a]quinoline-5,5′-pyrimidine]-2′,4′,6′(1′H,3′H)-trione] | 2090 |
| C[C@@H]1CN2c3ccc(C#Cc4ccncc4)cc3CC3(C(=O)NC(=O)NC3=O)[C@H]2[C@H](C)O1 (relative stereo) [Example 3, (2R,4S,4aS)-rel-2,4-Dimethyl-8-(pyridin-4-ylethynyl)-1,2,4,4a-tetrahydro-2′H,6H-spiro[1,4-oxazino[4,3-a]quinoline-5,5′-pyrimidine]-2′,4′,6′(1′H,3′H)-trione] | 2480 |
| C[C@@H]1CN2c3ccc(C#Cc4nccn4C)cc3CC3(C(=O)NC(=O)NC3=O)[C@H]2[C@H](C)O1 (relative stereo) [Example 4, (2R,4S,4aS)-rel-2,4-Dimethyl-8-[(1-methyl-1H-imidazol-2-yl)ethynyl]-1,2,4,4a-tetrahydro-2′H,6H-spiro[1,4-oxazino[4,3-a]quinoline-5,5′-pyrimidine]-2′,4′,6′(1′H,3′H)-trione] | 630 |
| Cc1nnc(C#Cc2cc3c(c(F)c2F)N2C[C@H](C)O[C@H](C)[C@H]2C2(C3)C(=O)NC(=O)NC2=O)s1 (relative stereo) [Example 5, (2S,4R,4aR)-rel-9,10-Difluoro-2,4-dimethyl-8-[(5-methyl-1,3,4-thiadiazol-2-yl)ethynyl]-1,2,4,4a-tetrahydro-2′H,6H-spiro[1,4-oxazino[4,3-a]quinoline-5,5′-pyrimidine]-2′,4′,6′(1′H,3′H)-trione] | 1880 |
| C[C@H]1CN2c3c(cc(C#C[Si](C)(C)C)c(F)c3F)CC3(C(=O)NC(=O)NC3=O)[C@@H]2[C@@H](C)O1 (relative stereo) [Example 6, (2S,4R,4aR)-rel-9,10-Difluoro-2,4-dimethyl-8-[(trimethylsilyl)ethynyl]-1,2,4,4a-tetrahydro2′H,6H-spiro[1,4-oxazino[4,3-a]quinoline-5,5′-pyrimidine]-2′,4′,6′(1′H,3′H)-trione] | 3270 |
| C[C@H]1CN2c3c(cc(C#Cc4nncs4)c(F)c3F)CC3(C(=O)NC(=O)NC3=O)[C@@H]2[C@@H](C)O1 (relative stereo) [Example 7, (2S,4R,4aR)-rel-9,10-Difluoro-2,4-dimethyl-8-(1,3,4-thiadiazol-2-ylethynyl)-1,2,4,4a-tetrahydro-2′H,6H-spiro[1,4-oxazino[4,3-a]quinoline-5,5′-pyrimidine]-2′,4′,6′(1′H,3′H)-trione] | 410 |
| C[C@H]1CN2c3c(cc(C#Cc4nccs4)c(F)c3F)CC3(C(=O)NC(=O)NC3=O)[C@@H]2[C@@H](C)O1 (relative stereo) [Example 8, (2S,4R,4aR)-rel-9,10-Difluoro-2,4-dimethyl-8-(1,3-thiazol-2-ylethynyl)-1,2,4,4a-tetrahydro-2′H,6H-spiro[1,4-oxazino[4,3-a]quinoline-5,5′-pyrimidine]-2′,4′,6′(1′H,3′H)-trione] | 1290 |
| C[C@H]1CN2c3c(cc(C#Cc4cncs4)c(F)c3F)CC3(C(=O)NC(=O)NC3=O)[C@@H]2[C@@H](C)O1 (relative stereo) [Example 9, (2S,4R,4aR)-rel-9,10-Difluoro-2,4-dimethyl-8-(1,3-thiazol-5-ylethynyl)-1,2,4,4a-tetrahydro-2′H,6H-spiro[1,4-oxazino[4,3-a]quinoline-5,5′-pyrimidine]-2′,4′,6′(1′H,3′H)-trione] | 700 |
| C[C@H]1CN2c3c(cc(C#Cc4cccs4)c(F)c3F)CC3(C(=O)NC(=O)NC3=O)[C@@H]2[C@@H](C)O1 (relative stereo) [Example 10, (2S,4R,4aR)-rel-9,10-Difluoro-2,4-dimethyl-8-(thiophen-2-ylethynyl)-1,2,4,4a-tetrahydro-2′H,6H-spiro[1,4-oxazino[4,3-a]quinoline-5,5′-pyrimidine]-2′,4′,6′(1′H,3′H)-trione] | 1450 |
| C[C@@H]1CN2c3c(cc(C#Cc4ccc(-c5nnn[nH]5)s4)c(F)c3F)CC3(C(=O)NC(=O)NC3=O)[C@H]2[C@H](C)O1 (relative stereo) [Example 14, (2R,4S,4aS)-rel-9,10-Difluoro-2,4-dimethyl-8-{[5-(1H-tetrazol-5-yl)thiophen-2-yl]ethynyl}-1,2,4,4a-tetrahydro-2′H,6H-spiro[1,4-oxazino[4,3-a]quinoline-5,5′-pyrimidine]-2′,4′,6′(1′H,3′H)-trione] | 1120 |
| C[C@H]1CN2c3c(cc(C#Cc4c[nH]cn4)c(F)c3F)CC3(C(=O)NC(=O)NC3=O)[C@@H]2[C@@H](C)O1 (relative stereo) [Example 15, (2S,4R,4aR)-rel-9,10-Difluoro-8-(1H-imidazol-4-ylethynyl)-2,4-dimethyl-1,2,4,4a-tetrahydro-2′H,6H-spiro[1,4-oxazino[4,3-a]quinoline-5,5′-pyrimidine]-2′,4′,6′(1′H,3′H)-trione] | 700 |
| C[C@H]1CN2c3c(cc(C#Cc4ncc[nH]4)c(F)c3F)CC3(C(=O)NC(=O)NC3=O)[C@@H]2[C@@H](C)O1 (relative stereo) [Example 16, (2S,4R,4aR)-rel-9,10-Difluoro-8-(1H-imidazol-2-ylethynyl)-2,4-dimethyl-1,2,4,4a-tetrahydro-2′H,6H-spiro[1,4-oxazino[4,3-a]quinoline-5,5′-pyrimidine]-2′,4′,6′(1′H,3′H)-trione] | 690 |
| C[C@@H]1CN2c3c(cc(C#Cc4ccc(-c5ccn[nH]5)s4)c(F)c3F)CC3(C(=O)NC(=O)NC3=O)[C@H]2[C@H](C)O1 (relative stereo) [Example 17, (2R,4S,4aS)-rel-9,10-Difluoro-2,4-dimethyl-8-{[5-(1H-pyrazol-5-yl)thiophen-2-yl]ethynyl}-1,2,4,4a-tetrahydro-2′H,6H-spiro[1,4-oxazino[4,3-a]quinoline-5,5′-pyrimidine]-2′,4′,6′(1′H,3′H)-trione] | 1840 |
| C[C@@H]1CN2c3c(cc(C#Cc4cccnc4)c(F)c3F)CC3(C(=O)NC(=O)NC3=O)[C@H]2[C@H](C)O1 (relative stereo) [Example 18, (2R,4S,4aS)-rel-9,10-Difluoro-2,4-dimethyl-8-(pyridin-3-ylethynyl)-1,2,4,4a-tetrahydro-2′H,6H-spiro[1,4-oxazino[4,3-a]quinoline-5,5′-pyrimidine]-2′,4′,6′(1′H,3′H)-trione] | 500 |
